Results from patent US20020031795A1, “Nitrocoumarins for detecting all micro-organisms” (priority 1998, published 2002).
“Also recorded” adds a separate entry of the source.

Legend:
Assay type in all cases: cell-based
[1] = tested on: Escherichia coli (NCTC 10418); assay: Growth of E. coli in Mueller-Hinton broth in the presence of nitrocoumarins (optical density 690 nm)
Protocol: A sample of the 7-nitrocoumarin derivative is dissolved in 4 ml of hot, distilled water. The mass dissolved to make the stock solution is such that the final concentration of the compound in the assay is 0.105 mmol/l. This solution is added to 96 ml of Mueller-Hinton broth and the mixture is sterile-filtered.
The E. coli was grown for 24 hours at 35° C. on Columbia agar supplemented with sheep blood. The bacteria were then resuspended in sterile, distilled water and their density was adjusted to 0.5 on the MacFarland scale (i.e. about 10^8 cells/ml). This suspension was then diluted 100-fold in sterile Mueller-Hinton broth (i.e. to a final density of about 10^6 cells/ml).
Fifty microliters of each nitrocoumarin solution plus 50 μl of bacterial suspension were then added to the wells of a microtiter plate. The plates were incubated at 35° C. and the optical density and fluorescence of each well was read every 30 min for a total of 4 hours. Optical density (690 nm) readings were made using an Anthos 2001 spectrophotometer (Labtech International Limited), and fluorescence (excitation at 365 nm and emission at 440 nm) readings were made on a Biolite F1 2001 fluorometer (Labtech International Limited).
The effect of the concentration of 7-nitrocoumarin-3-carboxylic acid on the sensitivity of the assay to detect E. coli (NCTC strain 10418) was investigated at concentrations of the indicator ranging from 0 to 0.262 mmol/l. All other conditions were identical to those described in section A above.

[2] = tested on: five different species of Enterobacteriaceae; assay: Reduction by wild strains of five species of Enterobacteriaceae (summary); settings: 0.17 mmol/l
Protocol: This experiment was designed to investigate whether or not it would be possible to detect Enterobacteriaceae other than E. coli using 7-nitrocoumarin-3-carboxylic acid. The conditions for this experiment were similar to those described for the first experiment (section A).
Five wild strains belonging to the species Citrobacter diversus, Enterobacter agglomerans, Hafnia alvei, Morganella morganii and Shigella sonnei were tested

[3] = tested on: Enterobacteriaceae, non-fermenting Gram-positive bacilli, Staphylococcus spp., Streptococcus spp., Listeria spp. and yeasts; assay: Reduction of nitrocoumarin derivatives by most microorganisms (results not presented)
[4] = tested on: sixteen different microorganisms; assay: Growth indicator test on sixteen different microorganisms (summary)
Protocol: This experiment was performed to test 7-nitrocoumarin-3-carboxylic acid on sixteen (16) different types of microorganism, including one yeast species.
A mass of 10 mg of the indicator was dissolved in 4 ml of hot, distilled water and this solution was then added to 96 ml of Trypticase Soy broth. The resultant mixture was sterile-filtered.
All the microorganisms were grown for 24 hours in Trypticase Soy broth at 35° C. Each culture was then diluted 1,000-fold in Trypticase Soy broth and then serial 10-fold dilutions were made in more Trypticase Soy broth until the test aliquot contained no more microbial cells.
The resultant dilutions ranged from 10^−3 to 10^−13.
Fifty microliters of each dilution plus 50 μl of Trypticase Soy broth were added to wells of a microtiter plate with or without 7-nitrocoumarin-3-carboxylic acid.
The plates were read (T zero) and then incubated at 35° C. before being read again after 24 hours. Two different readings were made at each time point: […]
of the fluorescence (excitation at 365 nm and emission at 440 nm), using a Biolite F1 2001 fluorometer (Labtech International Limited), for wells containing 7-nitrocoumarin-3-carboxylic acid.
In order to check the correlation between growth and the fluorescence results, the contents of each well were seeded on Columbia agar supplemented with sheep blood.

For O=C(O)c1cc2ccc([N+](=O)[O-])cc2oc1=O [7-nitrocoumarin-3-carboxylic acid], the “Optical density (690 nm)” value ([1]; 0.005 mmol/l, 0 min) was 0.000, the “Optical density (690 nm)” value ([1]; 0.005 mmol/l, 30 min) was 0.000 and the “Optical density (690 nm)” value ([1]; 0.005 mmol/l, 60 min) was 0.003. For the same compound, the “Optical density (690 nm)” value ([1]; 0.005 mmol/l, 90 min) was 0.011, the “Optical density (690 nm)” value ([1]; 0.005 mmol/l, 120 min) was 0.034 and the “Optical density (690 nm)” value ([1]; 0.005 mmol/l, 150 min) was 0.090. For the same compound, the “Optical density (690 nm)” value ([1]; 0.005 mmol/l, 180 min) was 0.155, the “Optical density (690 nm)” value ([1]; 0.005 mmol/l, 210 min) was 0.246 and the “Optical density (690 nm)” value ([1]; 0.005 mmol/l, 240 min) was 0.411. For the same compound, the “Optical density (690 nm)” value ([1]; 0.013 mmol/l, 0 min) was 0.000, the “Optical density (690 nm)” value ([1]; 0.013 mmol/l, 30 min) was 0.000 and the “Optical density (690 nm)” value ([1]; 0.013 mmol/l, 60 min) was 0.003. The “Optical density (690 nm)” value ([1]; 0.013 mmol/l, 90 min) was 0.011, the “Optical density (690 nm)” value ([1]; 0.013 mmol/l, 120 min) was 0.032 and the “Optical density (690 nm)” value ([1]; 0.013 mmol/l, 150 min) was 0.088. The “Optical density (690 nm)” value ([1]; 0.013 mmol/l, 180 min) was 0.149, the “Optical density (690 nm)” value ([1]; 0.013 mmol/l, 210 min) was 0.233 and the “Optical density (690 nm)” value ([1]; 0.013 mmol/l, 240 min) was 0.371. The “Optical density (690 nm)” value ([1]; 0.026 mmol/l, 0 min) was 0.000, the “Optical density (690 nm)” value ([1]; 0.026 mmol/l, 30 min) was 0.001 and the “Optical density (690 nm)” value ([1]; 0.026 mmol/l, 60 min) was 0.004. For the same compound, the “Optical density (690 nm)” value ([1]; 0.026 mmol/l, 90 min) was 0.011, the “Optical density (690 nm)” value ([1]; 0.026 mmol/l, 120 min) was 0.032 and the “Optical density (690 nm)” value ([1]; 0.026 mmol/l, 150 min) was 0.079. For the same compound, the “Optical density (690 nm)” value ([1]; 0.026 mmol/l, 180 min) was 0.201, the “Optical density (690 nm)” value ([1]; 0.026 mmol/l, 210 min) was 0.290 and the “Optical density (690 nm)” value ([1]; 0.026 mmol/l, 240 min) was 0.436. The “Optical density (690 nm)” value ([1]; 0.052 mmol/l, 0 min) was 0.000, the “Optical density (690 nm)” value ([1]; 0.052 mmol/l, 30 min) was 0.001 and the “Optical density (690 nm)” value ([1]; 0.052 mmol/l, 60 min) was 0.003. For the same compound, the “Optical density (690 nm)” value ([1]; 0.052 mmol/l, 90 min) was 0.011, the “Optical density (690 nm)” value ([1]; 0.052 mmol/l, 120 min) was 0.031 and the “Optical density (690 nm)” value ([1]; 0.052 mmol/l, 150 min) was 0.082. The “Optical density (690 nm)” value ([1]; 0.052 mmol/l, 180 min) was 0.153, the “Optical density (690 nm)” value ([1]; 0.052 mmol/l, 210 min) was 0.225 and the “Optical density (690 nm)” value ([1]; 0.052 mmol/l, 240 min) was 0.408. For the same compound, the “Inhibitory effect on the growth of E. coli (in words)” value ([1]; 0.105 mmol/l) was “no retarded growth; also recorded: does not inhibit E. coli growth”, the “Optical density (690 nm)” value ([1]; 0.105 mmol/l, 0 min) was 0.000 and the “Optical density (690 nm)” value ([1]; 0.105 mmol/l, 30 min) was 0.000. The “Optical density (690 nm)” value ([1]; 0.105 mmol/l, 60 min) was 0.002, the “Optical density (690 nm)” value ([1]; 0.105 mmol/l, 90 min) was 0.008 and the “Optical density (690 nm)” value ([1]; 0.105 mmol/l, 120 min) was 0.026. The “Optical density (690 nm)” value ([1]; 0.105 mmol/l, 150 min) was 0.068, the “Optical density (690 nm)” value ([1]; 0.105 mmol/l, 180 min) was 0.164 and the “Optical density (690 nm)” value ([1]; 0.105 mmol/l, 210 min) was 0.227. For the same compound, the “Optical density (690 nm)” value ([1]; 0.105 mmol/l, 240 min) was 0.416, the “Optical density (690 nm)” value ([1]; 0.157 mmol/l, 0 min) was 0.000 and the “Optical density (690 nm)” value ([1]; 0.157 mmol/l, 30 min) was −0.001. The “Optical density (690 nm)” value ([1]; 0.157 mmol/l, 60 min) was 0.002, the “Optical density (690 nm)” value ([1]; 0.157 mmol/l, 90 min) was 0.009 and the “Optical density (690 nm)” value ([1]; 0.157 mmol/l, 120 min) was 0.027. The “Optical density (690 nm)” value ([1]; 0.157 mmol/l, 150 min) was 0.073, the “Optical density (690 nm)” value ([1]; 0.157 mmol/l, 180 min) was 0.151 and the “Optical density (690 nm)” value ([1]; 0.157 mmol/l, 210 min) was 0205. The “Optical density (690 nm)” value ([1]; 0.157 mmol/l, 240 min) was 0.372, the “Optical density (690 nm)” value ([1]; 0.210 mmol/l, 0 min) was 0.000 and the “Optical density (690 nm)” value ([1]; 0.210 mmol/l, 30 min) was 0.000. The “Optical density (690 nm)” value ([1]; 0.210 mmol/l, 60 min) was 0.003, the “Optical density (690 nm)” value ([1]; 0.210 mmol/l, 90 min) was 0.010 and the “Optical density (690 nm)” value ([1]; 0.210 mmol/l, 120 min) was 0.027. For the same compound, the “Optical density (690 nm)” value ([1]; 0.210 mmol/l, 150 min) was 0.072, the “Optical density (690 nm)” value ([1]; 0.210 mmol/l, 180 min) was 0.138 and the “Optical density (690 nm)” value ([1]; 0.210 mmol/l, 210 min) was 0.187. The “Optical density (690 nm)” value ([1]; 0.210 mmol/l, 240 min) was 0.346, the “Optical density (690 nm)” value ([1]; 0.262 mmol/l, 0 min) was 0.000 and the “Optical density (690 nm)” value ([1]; 0.262 mmol/l, 30 min) was 0.000. The “Optical density (690 nm)” value ([1]; 0.262 mmol/l, 60 min) was 0.002, the “Optical density (690 nm)” value ([1]; 0.262 mmol/l, 90 min) was 0.009 and the “Optical density (690 nm)” value ([1]; 0.262 mmol/l, 120 min) was 0.027. For the same compound, the “Optical density (690 nm)” value ([1]; 0.262 mmol/l, 150 min) was 0.069, the “Optical density (690 nm)” value ([1]; 0.262 mmol/l, 180 min) was 0.144 and the “Optical density (690 nm)” value ([1]; 0.262 mmol/l, 240 min) was 0.346. The “Effect of the concentration on E. coli growth (in words)” value ([1]; concentrations from 0 to 0.262 mmol/l) was “no significant effect”, the “Reduction by wild strains of five Enterobacteriaceae species (in words)” value [2] was “All the strains tested were found to be able to reduce this compound” and the “Reduction to give a fluorescent signal (in words)” value [3] was “All were capable of reducing”. The “Correlation of fluorescence readings with microbial growth (in words)” value ([4]; 24 hours, Trypticase Soy broth) was “correlate closely with microbial growth patterns for all the species tested” and the “Sensitivity of the assay (in words)” value ([4]; limiting dilution) was “capable of detecting a single viable cell”.
